The compounds below were run on Coptotermes formosanus (assay: Insect repellant activity against Coptotermes formosanus assessed as repellency threshold concentration measured up to 24 hr by multiple-step triage method).
Assay type: functional
With `CC(C)[C@@H]1CC[C@]2(C)C(=CC(=O)C[C@@H]2C)C1` the MEC was 6.25 µg/g. Work on `C=C(C)[C@@H]1CC[C@@]2(C)CCC(=O)C=C2C1` yielded an MEC of 6.25 µg/g. `C=C(C)[C@@H]1CC[C@]2(C)C(=CC(=O)C[C@@H]2C)C1` showed an MEC of 12.5 µg/g. `C=C(C)[C@@H]1CC[C@]2(C)CCC(=O)C=C2C1` was tested, and the MEC was 12.5 µg/g. Compound `C=C(C)[C@@H]1CC[C@@]2(C)C=CC(=O)C=C2C1` has an MEC of 25 µg/g. For `CC(C)[C@@H]1CC[C@@]2(C)C=CC(=O)C=C2C1`, the MEC was 25 µg/g. `CC1=CC(=O)C=C2C[C@H](C(C)C)CC[C@@]12C` gave an MEC of 25 µg/g. Work on `C=C(C)[C@@H]1CC[C@@]2(C)C(C)=CC(=O)C=C2C1` yielded an MEC of 50 µg/g. Work on `C=C(C)[C@@H]1CCC2C[C@@H](O)C[C@@H](C)[C@]2(C)C1` (some centres not stated) yielded an MEC of 50 µg/g. With `C=C(C)[C@@H]1CCC2CC3(C[C@@H](C)[C@]2(C)C1)OCCO3` (some centres not stated) [1,10-DIHYDRONOOTKATONE KETAL] the MEC was 1.56 µg/g. For `C=C(C)[C@@H]1CCC2CC(=O)C[C@@H](C)[C@]2(C)C1` (some centres not stated) [1,10-DIHYDRONOOTKATONE], the MEC was 1.56 µg/g. For `CC(C)[C@@H]1CCC2=CC(=O)C[C@H](C)[C@@]2(C)C1` [4BETA,5BETA-1,10-DIHYDRONOOTKATONE], the MEC was 3.25 µg/g. With `CC(C)[C@@H]1CCC2=CC(=O)C[C@@H](C)[C@]2(C)C1` [11,12-DIHYDRONOOTKATONE] the MEC was 6.25 µg/g. Compound `C=C(C)[C@@H]1CCC2=C[C@@H](O)C[C@@H](C)[C@]2(C)C1` [BETA-NOOTKATOL] has an MEC of 100 µg/g. `C=C(C)[C@@H]1CCC2=CC(=O)C[C@@H](C)[C@]2(C)C1` [NOOTKATONE] gave an MEC of 12.5 µg/g. Work on `CC(C)[C@@H]1CCC2CC3(C[C@@H](C)[C@]2(C)C1)OCCO3` (some centres not stated) [TETRAHYDRONOOTKATONE KETAL] yielded an MEC of 1.56 µg/g. `CC(C)[C@@H]1CCC2CC(=O)C[C@@H](C)[C@]2(C)C1` (some centres not stated) [TETRAHYDRONOOTKATONE] gave an MEC of 1.56 µg/g.
